PubChem BioAssay (NCI)
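A five-concentration, 48-hour dose response in 96-well plates underlies each endpoint, interpolated linearly between surrounding concentrations. GI50: concentration for 50% inhibition of growth. Definition used: TGI = concentration required for complete inhibition of growth.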

Experiments:
Experiment in all cases: NCI-60 cell line screen, 48 h
[1] = system: OVCAR-4 ovarian
[2] = system: IGROV1 ovarian
[3] = system: MCF7 breast
[4] = system: CAKI-1 renal
[5] = system: TK-10 renal
[6] = system: RPMI-8226 leukemia
[7] = system: SF-295 CNS
[8] = system: UACC-257 melanoma
[9] = system: HT29 colon

SMILES | GI50 [1] | TGI [1] | GI50 [2] | TGI [2] | GI50 [3] | TGI [3] | GI50 [4] | TGI [4] | GI50 [5] | TGI [5] | GI50 [6] | TGI [6] | GI50 [7] | TGI [7] | GI50 [8] | TGI [8] | GI50 [9] | TGI [9]
O=C(Nc1cccc(C(F)(F)F)c1)c1ccc(NC2=C(Cl)C(=O)N(Cc3ccc(Cl)cc3Cl)C2=O)cc1 | 11.1 µM | 42.6 µM | 2.01 µM | 4.56 µM | 2.15 µM | 4.71 µM | 16.8 µM | 34.6 µM | 15.6 µM | 35.7 µM | 2.29 µM | 5.08 µM | 13 µM | 35 µM | 15.9 µM | 42.2 µM | 3.82 µM | 36.8 µM
COC(=O)/C(C#N)=C1\N=NNN1c1ccc(OC)cc1 | – | – | – | > 100 µM | – | – | – | > 100 µM | – | > 100 µM | – | > 100 µM | – | > 100 µM | – | > 100 µM | – | > 100 µM
CN(C)C(=S)/N=c1\sn(C)/c(=N\C(=S)N(C)C)n1C | – | > 100 µM | – | > 100 µM | – | – | – | > 100 µM | – | > 100 µM | – | > 100 µM | – | > 100 µM | – | > 100 µM | – | > 100 µM
COC(=O)/C(=C/c1ccc(OC)cc1)C(C(=O)O)=C1CCCC1 | – | > 100 µM | – | > 100 µM | – | – | – | > 100 µM | – | > 100 µM | – | > 100 µM | – | > 100 µM | – | > 100 µM | – | > 100 µM
CCCCCCCCCCCCCCCC(=O)OCCOCCOCCOCc1ccccc1 | – | > 100 µM | – | > 100 µM | – | – | – | > 100 µM | – | > 100 µM | – | – | – | 98.4 µM | – | > 100 µM | – | > 100 µM
COC(=O)/C(=N\NC(N)=S)C(C(=O)OC)C(=O)C(=O)Nc1ccc(C)cc1 (stereo unspecified) | – | > 100 µM | – | > 100 µM | – | – | – | > 100 µM | – | > 100 µM | – | > 100 µM | – | > 100 µM | – | > 100 µM | – | > 100 µM
COC1C(OC(=S)Nc2ccccc2)c2ccccc2N1C(C)=O (stereo unspecified) | – | > 100 µM | – | > 100 µM | – | – | – | > 100 µM | – | – | – | > 100 µM | – | > 100 µM | – | > 100 µM | – | > 100 µM
CC1=Cc2cccc(C)c2C(=O)C1=O | – | 10.1 µM | – | 29.2 µM | – | – | – | 32.5 µM | – | 4.75 µM | – | 4.36 µM | – | 11.1 µM | – | 4.72 µM | – | 32.3 µM
O=C(/C(=C/c1ccc(Cl)cc1)c1ccccc1)c1ccccc1 | – | 66.9 µM | – | 49.1 µM | – | – | – | – | – | 56.8 µM | – | 45.4 µM | – | 39.7 µM | – | 29 µM | – | 38.4 µM
CCOC(=O)c1nc2c(OC)nn(O)cc-2c1[N+](=O)[O-] | – | 34.9 µM | – | > 100 µM | – | – | – | – | – | 30 µM | – | 56.2 µM | – | > 100 µM | – | 33.5 µM | – | 29.3 µM
O=C1N=C2Sc3ccc4ccccc4c3N2C1=O | – | 32.7 µM | – | 57.1 µM | – | – | – | 46.2 µM | – | 81.6 µM | – | > 100 µM | – | 36.5 µM | – | 96.8 µM | – | 96.7 µM
COCC(OC)C(CC=C(C#N)C#N)OC (stereo unspecified) | – | > 100 µM | – | > 100 µM | – | – | – | > 100 µM | – | > 100 µM | – | > 100 µM | – | > 100 µM | – | > 100 µM | – | > 100 µM
